Results: ChEMBL document CHEMBL1135889, “Novel 4-anilinoquinazolines with C-7 basic side chains: design and structure activity relationship of a series of potent, orally active, VEGF receptor tyrosine kinase inhibitors” (J Med Chem, 2002)

Key:
[1] = Pharmacokinetic parameter half-life in rat was reported after intravenous administration of 5 mg/Kg measured on free base; settings: in vivo
[2] = system: Mus musculus; assay: Inhibition of Calu-6 tumor xenografts implanted subcutaneously in athymic mice measured after 21 days of dosing of 100 mg/kg perorally.; assay type: functional; settings: Calu-6, 504 h, route oral
[3] = system: Mus musculus; assay: Inhibition of Established Calu-6 tumor xenografts implanted subcutaneously in athymic mice measured after 21 days of dosing of 12.5 mg/kg perorally.; assay type: functional; settings: Calu-6, 504 h, route oral
[4] = system: HUVEC; assay: Inhibition of basal unstimulated growth of human endothelial cell; assay type: functional, cell-based
[5] = Plasma levels following administration of 50 mg/Kg perorally and concentration in plasma 6 hr after administration; assay type: ADME, cell-free; settings: po, read-out: Plasma level
[6] = system: Mus musculus; assay: Inhibition of Established Calu-6 tumor xenografts implanted subcutaneously in athymic mice measured after 21 days of dosing of 50 mg/kg perorally.; assay type: functional; settings: Calu-6, 504 h, route oral
[7] = system: Mus musculus; assay: Inhibition of Established Calu-6 tumor xenografts implanted subcutaneously in athymic mice measured after 21 days of dosing of […] mg/kg perorally.; assay type: functional; settings: Calu-6, 504 h, route oral
[8] = Pharmacokinetic parameter bioavailability in rat was reported after oral administration of 50 mg/Kg measured on free base; assay type: ADME, organism-based; settings: in vivo
[9] = pKa value at a pH of […].value ranges from […]-[…].; assay type: physicochemical; settings: pH 7.4
[10] = physchem; settings: octanol/water, pH 7.4
[11] = solubility was determined using free base at pH 7.4; assay type: physicochemical; settings: buffer
[12] = Pharmacokinetic parameter half-life in dog was reported after intravenous administration of 5 mg/Kg measured on free base; settings: in vivo
[13] = Pharmacokinetic parameter bioavailability in dog was reported after oral administration of 25 mg/Kg measured on free base; settings: in vivo
[14] = Plasma levels following administration of 50 mg/Kg perorally and concentration of compound in plasma 24 hr after administration; assay type: ADME, cell-free; settings: po, read-out: Plasma level

half-life [1]: 15 h
concentration at 6 h [5]: 5.5 µM
bioavailability [8]: > 50%
pKa [9]: 9.4
logD [10]: 2.6
solubility [11]: 330 µM
half-life [12]: 8.3 h
bioavailability [13]: > 50%
concentration at 24 h [14]: 3 µM
Structure (SMILES): COc1cc2c(Nc3ccc(Br)cc3F)ncnc2cc1OCC1CCN(C)CC1.Cl
inhibition in vivo at 100 mg/kg [2]: 79%
inhibition in vivo at 12.5 mg/kg [3]: 36%
IC50 [4]: > 3 µM
inhibition in vivo at 50 mg/kg [6]: 67%
inhibition in vivo at 25 mg/kg [7]: 51%
